Tests used:
σ1 receptor = σ1 receptor (Homo sapiens, UniProt Q99720); format: binding; conditions: 10 μM competing compound, 1 nM [125I]-IAF, RT4 cell membranes
σ2 receptor [1] = target: σ2 receptor (Homo sapiens, UniProt Q5BJF2); format: binding; conditions: 10 μM competing compound, 1 nM [125I]-IAF, RT4 cell membranes
σ2 receptor [2] = target: T1, σ2 receptor (Rattus norvegicus, UniProt Q5U3Y7); experiment: Competitive σ2 receptor radioligand binding
T1 sequence (Q5U3Y7 1-176): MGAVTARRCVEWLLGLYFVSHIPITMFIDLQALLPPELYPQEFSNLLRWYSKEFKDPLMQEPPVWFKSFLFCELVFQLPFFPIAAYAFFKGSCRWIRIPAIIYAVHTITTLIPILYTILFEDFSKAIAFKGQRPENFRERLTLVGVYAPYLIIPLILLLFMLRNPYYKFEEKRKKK

Sequence of σ1 receptor (Q99720 whole entry): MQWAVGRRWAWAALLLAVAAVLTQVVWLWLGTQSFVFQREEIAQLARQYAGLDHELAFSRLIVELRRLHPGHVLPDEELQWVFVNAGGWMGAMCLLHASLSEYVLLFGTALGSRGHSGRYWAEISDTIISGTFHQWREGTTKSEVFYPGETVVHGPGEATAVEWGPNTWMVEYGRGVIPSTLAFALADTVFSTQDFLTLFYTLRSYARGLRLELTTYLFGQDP
Sequence of σ2 receptor (Homo sapiens, UniProt Q5BJF2) (Q5BJF2 whole entry): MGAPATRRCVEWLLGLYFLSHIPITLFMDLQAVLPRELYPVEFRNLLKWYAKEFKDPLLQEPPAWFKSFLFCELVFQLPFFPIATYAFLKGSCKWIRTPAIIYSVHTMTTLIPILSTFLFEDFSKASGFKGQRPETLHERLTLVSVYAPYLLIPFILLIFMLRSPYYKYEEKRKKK

| Structure (SMILES) | Blocking of σ1 receptor photolabeling by [125I]-IAF (σ1 receptor) | Blocking of σ2 receptor photolabeling by [125I]-IAF (σ2 receptor [1]) | Selectivity for the σ2 over the σ1 receptor (σ2 receptor [2]) | Improvement of σ2 selectivity relative to the σ1 receptor, versus 5f (σ2 receptor [2]; 5e compared to 5f) [fold] | Increase of σ2 affinity versus 5f (σ2 receptor [2]; 5e compared to 5f) [fold] | Increase of σ2 affinity in comparison to compound 5h (σ2 receptor [2]; 5g compared to 5h) [fold] |
| --- | --- | --- | --- | --- | --- | --- |
| O=C1c2ccccc2C(=O)N1CCCCN1CCc2ccc([N+](=O)[O-])cc2C1 [Compound 3b, 2-(4-(7-Nitro-3,4-dihydroisoquinoline-2(1H)-yl)butyl)isoindoline-1,3-dione] | diminished both bands | diminished both bands |  |  |  |  |
| COc1ccc(C(=O)NCCCCN2CCc3ccc([N+](=O)[O-])cc3C2)c(OC)c1OC [Compound 5e, 2,3,4-Trimethoxy-N-(4-(7-nitro-3,4-dihydroisoquinoline-2(1H)-yl)butyl)benzamide] | left σ1 labeling essentially unaltered | eliminated σ2 labeling | ~ 400 fold | 631 | 500 |  |
| COc1cccc(C(=O)NCCCCN2CCc3ccc([N+](=O)[O-])cc3C2)c1OC [Compound 5f, 2,3-Dimethoxy-N-(4-(7-nitro-3,4-dihydroisoquinoline-2(1H)-yl)butyl)benzamide] | did not block the labeling of either receptor | did not block the labeling of either receptor |  |  |  |  |
| COc1c(I)ccc(C(=O)NCCCCN2CCc3ccc([N+](=O)[O-])cc3C2)c1O [Compound 5g, 2-Hydroxy-4-iodo-3-methoxy-N-(4-(7-nitro-3,4-dihydroisoquinoline-2(1H)-yl)butyl)benzamide] |  |  |  |  |  | 4.5 |
| O=C(CCCN1CCC(O)(c2ccc(Cl)cc2)CC1)c1ccc(F)cc1 [haloperidol, reference compound] |  | blocked photolabeling |  |  |  |  |

From paper PMC3229200 (Bioorganic & medicinal chemistry, 2011)
